Measurements reported in ChEMBL document CHEMBL1124604, “Synthesis and benzodiazepine receptor affinities of rigid analogues of 3-carboxy-beta-carbolines: demonstration that the benzodiazepine receptor recognizes preferentially the s-cis conformation of the 3-carboxy group” (J Med Chem, 1989).

Assay: In vitro inhibition of [3H]flunitrazepam binding to GABA-A receptor of rat cerebral cortex membranes
Type: cell membranes, Membrane

**Q.** Which IC50 does the source give for `CNC(=O)c1cc2c(cn1)[nH]c1ccccc12` here?
**A.** 0.197 µM

**Q.** Which IC50 does the source give for `O=C1OCCc2c1[nH]cc1nc3ccccc3c2-1` here?
**A.** 0.042 µM

**Q.** Which IC50 does the source give for `CCOC(=O)c1cc2c(cn1)[nH]c1ccccc12` here?
**A.** 0.007 µM

**Q.** Which IC50 does the source give for `O=C1NCCc2c1[nH]cc1nc3ccccc3c2-1` here?
**A.** 0.15 µM

**Q.** With `CCc1c(C(=O)OC)[nH]cc2nc3ccccc3c1-2` as the molecule, how does the IC50 read?
**A.** 0.027 µM

**Q.** Which IC50 does the source give for `CCc1c(C(=O)NC)[nH]cc2nc3ccccc3c1-2` here?
**A.** > 10 µM

**Q.** With `COC(=O)c1cc2c(cn1)[nH]c1ccccc12` [BETA-CCM] as the molecule, how does the IC50 read?
**A.** 0.0035 µM
